Test system: Wnt pathway (TCF-dependent transcription in HEK293 luciferase reporter cell line with ER-DSH construct)
Test: Cellular assay for Wnt pathway activity (luciferase reporter)
Type: cell-based
Settings: Homo sapiens; Wnt pathway inhibition, HEK293 luciferase reporter cells (ER-DSH, TCF promoter), 24 hours incubation, estrogen-induced
Method in brief: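 Compounds (30 μM down to 1 nM) were incubated 24 h on cells induced for TCF-dependent transcription with estrogen. Luciferase activity was read by luminescence, normalized to untreated vehicle control, and fitted for IC50.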

| Structure (SMILES) | IC50 |
| --- | --- |
| CCC(C)(C)c1ccc(Oc2cncc(N(C)CCN(C)C(C)=O)n2)cc1 [Compound 139, N-[2-({6-[4-(1,1-Dimethyl-propyl)-phenoxy]-pyrazin-2-yl}-methyl-amino)-ethyl]-N-methyl-acetamide] | 0.2 to 1 µM |
| CC(=O)N(C)CCN(C)c1cncc(Oc2ccc(N3CCCCC3=O)cc2)n1 [Compound 86, N-Methyl-N-[2-(methyl-{6-[4-(2-oxo-piperidin-1-yl)-phenoxy]-pyrazin-2-yl}-amino)-ethyl]-acetamide] | 0.2 to 1 µM |
| CC(=O)N(C)CCCc1cncc(Oc2ccc(-c3ccc(N4CCOCC4)nc3)cc2)c1 [Compound 318, N-Methyl-N-(3-{5-[4-(6-morpholin-4-yl-pyridin-3-yl)-phenoxy]-pyridin-3-yl}-propyl)-acetamide] | 0.2 to 1 µM |
| COc1ccc(Oc2cncc(NCC3CCCN3C(C)=O)n2)cc1 (centres unmarked) [Compound 57, 1-(2-{[6-(4-Methoxy-phenoxy)-pyrazin-2-ylamino]-methyl}-pyrrolidin-1-yl)-ethanone] | 1 to 10 µM |
| CC(=O)N(C)CCNc1cncc(Oc2ccc(-c3cccc(N4CCN(C)CC4)n3)cc2)n1 [Compound 234, N-Methyl-N-[2-(6-{4-[6-(4-methyl-piperazin-1-yl)-pyridin-2-yl]-phenoxy}-pyrazin-2-ylamino)-ethyl]-acetamide] | < 0.2 µM |
| CC(=O)N(C)CCN(C)c1cncc(Oc2ccc3c(cnn3C)c2)n1 [Compound 317, N-Methyl-N-(2-{methyl-[6-(1-methyl-1H-indazol-5-yloxy)-pyrazin-2-yl]-amino}-ethyl)-acetamide] | < 0.2 µM |
| CC(=O)N(CCSc1cncc(Oc2ccc(-c3ccc(C)cn3)cc2)n1)C(C)C [Compound 169, N-Isopropyl-N-(2-{6-[4-(5-methyl-pyridin-2-yl)-phenoxy]-pyrazin-2-ylsulfanyl}-ethyl)-acetamide] | < 0.2 µM |
| CC(=O)N(C)CCN(C)c1cncc(Oc2ccc(C3CCC(=O)CC3)cc2)n1 [Compound 178, N-Methyl-N-[2-(methyl-{6-[4-(4-oxo-cyclohexyl)-phenoxy]-pyrazin-2-yl}-amino)-ethyl]-acetamide] | < 0.2 µM |
| CC(=O)N(C)CCN(C)c1cncc(Oc2ccc(C3CCC(C)CO3)cc2)n1 (centres unmarked) [Compound 179, N-Methyl-N-[2-(methyl-{6-[4-(5-methyl-tetrahydro-pyran-2-yl)-phenoxy]-pyrazin-2-yl}-amino)-ethyl]-acetamide] | < 0.2 µM |
| COc1ccc(Oc2cncc(N3CCCC(CNC(C)=O)C3)n2)cc1 (centres unmarked) [Compound 49, N-{1-[6-(4-Methoxy-phenoxy)-pyrazin-2-yl]-piperidin-3-ylmethyl}-acetamide] | 1 to 10 µM |
| CC(=O)N(C)CCNc1cncc(Oc2ccc(-c3cncc(S(C)(=O)=O)c3)cc2)n1 [Compound 275, N-(2-{6-[4-(5-Methane-sulfonyl-pyridin-3-yl)-phenoxy]-pyrazin-2-ylamino}-ethyl)-N-methyl-acetamide] | 1 to 10 µM |
| COc1ccc(Oc2cncc(N(C)CCNC(=O)OC(C)(C)C)n2)cc1 [Compound 54, (2-{[6-(4-Methoxy-phenoxy)-pyrazin-2-yl]-methyl-amino}-ethyl)-carbamic acid tert-butyl ester] | 1 to 10 µM |
| COc1ccc(Oc2cncc(N(C)CCN(C)C(=O)C(F)(F)F)n2)cc1 [Compound 79, 2,2,2-Trifluoro-N-(2-{[6-(4-methoxy-phenoxy)-pyrazin-2-yl]-methyl-amino}-ethyl)-N-methyl-acetamide] | 1 to 10 µM |
| C#CCOC(=O)Nc1ccc(-c2ccc(Oc3cncc(N(C)CCN(C)C(C)=O)n3)cc2)nc1 [Compound 244, {6-[4-(6-{[2-(Acetyl-methyl-amino)-ethyl]-methyl-amino}-pyrazin-2-yloxy)-phenyl]-pyridin-3-yl}-carbamic acid prop-2-ynyl ester] | < 0.2 µM |
| CCNC(=O)N(C)CCN(C)c1cncc(Oc2ccc(OC)cc2)n1 [Compound 69, 3-Ethyl-1-(2-{[6-(4-methoxy-phenoxy)-pyrazin-2-yl]-methyl-amino}-ethyl)-1-methyl-urea] | 1 to 10 µM |
| CC(=O)N(C)CCCc1cncc(Oc2ccc(-c3ccncc3C#N)cc2F)n1 [Compound 266, N-(3-{6-[4-(3-Cyano-pyridin-4-yl)-2-fluoro-phenoxy]-pyrazin-2-yl}-propyl)-N-methyl-acetamide] | < 0.2 µM |
| CN(CCN(C)c1cncc(Oc2ccc(F)cc2)n1)C(=O)CN(C)C(=O)OC(C)(C)C [Compound 285, {[(2-{[6-(4-Fluoro-phenoxy)-pyrazin-2-yl]-methyl-amino}-ethyl)-methyl-carbamoyl]-methyl}-methyl-carbamic acid tert-butyl ester] | 1 to 10 µM |
| CC(=O)N(C)CCN(C)c1cncc(Oc2ccc(-c3ccc(C)nc3)cc2)n1 [Compound 183, N-Methyl-N-[2-(methyl-{6-[4-(6-methyl-pyridin-3-yl)-phenoxy]-pyrazin-2-yl}-amino)-ethyl]-acetamide] | < 0.2 µM |
| CN(CCC(N)=O)c1cncc(Oc2ccc(F)cc2)n1 [Compound 156, 3-{[6-(4-Fluoro-phenoxy)-pyrazin-2-yl]-methyl-amino}-propion-amide] | 1 to 10 µM |

| Structure (SMILES) | IC50 |
| --- | --- |
| CC(=O)N(C)CCN(C)c1cncc(OC2CCCC2)n1 [Compound 43, N-{2-[(6-Cyclo-pentyloxy-pyrazin-2-yl)-methyl-amino]-ethyl}-N-methyl-acetamide] | 1 to 10 µM |
| CC(=O)N(C)CCN(C)c1cncc(Oc2ccc3cccnc3c2)n1 [Compound 55, N-Methyl-N-(2-{methyl-[6-(quinolin-7-yloxy)-pyrazin-2-yl]-amino}-ethyl)-acetamide] | 1 to 10 µM |
| CC(=O)N(C)CCCN(C)c1cncc(Oc2ccc(F)cc2)n1 [Compound 83, N-(3-{[6-(4-Fluoro-phenoxy)-pyrazin-2-yl]-methyl-amino}-propyl)-N-methyl-acetamide] | 1 to 10 µM |
| CC(=O)N(C)CCNc1cncc(Oc2ccc(F)cc2)n1 [Compound 66, N-{2-[6-(4-Fluoro-phenoxy)-pyrazin-2-ylamino]-ethyl}-N-methyl-acetamide] | 1 to 10 µM |
| CC(=O)N(C)CCN(C)c1cncc(Oc2ccc(S(N)(=O)=O)cc2)n1 [Compound 101, N-Methyl-N-(2-[methyl-[6-(4-sulfamoyl-phenoxy)-pyrazin-2-yl]-amino}-ethyl)-acetamide] | 0.2 to 1 µM |
| CCOc1ccc(Oc2cncc(N(C)CCN(C)C(C)=O)n2)cc1 [Compound 123, N-(2-{[6-(4-Ethoxy-phenoxy)-pyrazin-2-yl]-methyl-amino}-ethyl)-N-methyl-acetamide] | < 0.2 µM |
| CC(=O)N(C)CCN(C)c1cncc(Oc2ccc3ccncc3c2)n1 [Compound 112, N-(2-{[6-(Isoquinolin-7-yloxy)-pyrazin-2-yl]-methyl-amino}-ethyl)-N-methyl-acetamide] | < 0.2 µM |
| CC(=O)Nc1cccc(-c2ccc(Oc3cncc(NCCN(C)C(C)=O)n3)cc2)n1 [Compound 235, N-(2-{6-[4-(6-Acetylamino-pyridin-2-yl)-phenoxy]-pyrazin-2-ylamino}-ethyl)-N-methyl-acetamide] | 0.2 to 1 µM |
| CC(=O)N(C)CCNc1cncc(Oc2ccc(-c3ccc(CO)nc3)cc2)n1 [Compound 254, N-(2-{6-[4-(6-Hydroxy-methyl-pyridin-3-yl)-phenoxy]-pyrazin-2-ylamino}-ethyl)-N-methyl-acetamide] | 0.2 to 1 µM |
| CC(=O)N(C)CCN(C)c1cncc(Oc2ccc(-c3cccnc3)c(F)c2F)n1 [Compound 279, N-(2-{[6-(2,3-Difluoro-4-pyridin-3-yl-phenoxy)-pyrazin-2-yl]-methyl-amino}-ethyl)-N-methyl-acetamide] | < 0.2 µM |
| CC(=O)N(C)CCN(C)c1cncc(Oc2ccc(-c3ccccc3)cc2)n1 [Compound 98, N-(2-{[6-(Biphenyl-4-yloxy)-pyrazin-2-yl]-methyl-amino}-ethyl)-N-methyl-acetamide] | < 0.2 µM |
| CC(=O)N(C)CCN(C)c1cncc(Oc2ccc(-c3ccc(N4CCN(C(=O)CCCCCNC(=O)CCCCC5SCC6NC(=O)NC65)CC4)nc3)cc2)n1 (centres unmarked) [Compound 287, 5-(2-Oxo-hexahydro-thieno[3,4-d]imidazol-6-yl)-pentanoic acid [6-(4-{5-[4-(6-{[2-(acetyl-methyl-amino)-ethyl]-methyl-amino}-pyrazin-2-yloxy)-phenyl]-pyridin-2-yl}-piperazin-1-yl)-6-oxo-hexyl]-amide] | < 0.2 µM |
| O=C1OCCN1CCNc1cncc(Oc2ccc(F)cc2)n1 [Compound 277, 3-{2-[6-(4-Fluoro-phenoxy)-pyrazin-2-ylamino]-ethyl}-oxazolidin-2-one] | 1 to 10 µM |
| NC(=O)CCNc1cncc(Oc2ccc(-c3cnc(N)cn3)cc2)n1 [Compound 301, 3-{6-[4-(5-Amino-pyrazin-2-yl)-phenoxy]-pyrazin-2-ylamino}-propionamide] | 1 to 10 µM |
| CC(=O)N(C)CCN(C)c1cncc(Oc2ccc(-c3ccnc(C#N)c3)cc2)n1 [Compound 201, N-[2-({6-[4-(2-Cyano-pyridin-4-yl)-phenoxy]-pyrazin-2-yl}-methyl-amino)-ethyl]-N-methyl-acetamide] | < 0.2 µM |
| CC(=O)N(C)CCN(C)c1cncc(Oc2ccc(-c3ccncc3C#N)cc2)n1 [Compound 144, N-[2-({6-[4-(3-Cyano-pyridin-4-yl)-phenoxy]-pyrazin-2-yl}-methyl-amino)-ethyl]-N-methyl-acetamide] | < 0.2 µM |
| CC(=O)N(C)CCN(C)c1cncc(Oc2ccc(-c3ccc(N4CCOCC4)nc3)cc2)n1 [Compound 175, N-Methyl-N-[2-(methyl-{6-[4-(6-morpholin-4-yl-pyridin-3-yl)-phenoxy]-pyrazin-2-yl}-amino)-ethyl]-acetamide] | < 0.2 µM |
| COc1ccc(Oc2cncc(NCCN(C)C(C)=O)n2)cc1 [Compound 67, N-{2-[6-(4-Methoxy-phenoxy)-pyrazin-2-ylamino]-ethyl}-N-methyl-acetamide] | 1 to 10 µM |
| CN(CCN(C)S(C)(=O)=O)c1cncc(Oc2ccc(F)cc2)n1 [Compound 281, N-(2-{[6-(4-Fluoro-phenoxy)-pyrazin-2-yl]-methyl-amino}-ethyl)-N-methyl-methane-sulfonamide] | 1 to 10 µM |

— patent US9493444B2 (Merck Patent GmbH, priority 2012, dated 2016)
